In ChEMBL document CHEMBL3632570, “Structure-Guided Design of Novel l-Cysteine Derivatives as Potent KSP Inhibitors” (ACS Med Chem Lett, 2015):
The source made the active and inactive calls. The calls are words filed in the database; no cut-off is given here.

Legend:
HCT-116 [1] = assay: Antitumor activity against human HCT116 cells xenografted in athymic nude BALB/cAJcL mouse assessed as inhibition of tumor growth at 75 mg/kg, iv administered on days 1,3,5,8,10 and 12 measured on day 15; assay type: functional
HCT-116 [2] = assay: Antitumor activity against human HCT116 cells xenografted in iv dosed athymic nude BALB/cAJcL mouse assessed as inhibition of tumor growth drug administered on days 1,3,5,8,10 and 12 measured on day 15; assay type: functional, organism-based
HeLa [3] = assay: Cell cycle arrest at mitotic phase in human HeLa cells assessed as mitotic index after 6 hrs; assay type: functional
[4] = molecular target: T1, Kinesin-like protein KIF15 (Homo sapiens) (UniProt Q9NS87); assay: Inhibition of microtubule-stimulated KIF15 motor domain (1 to 372) (unknown origin) ATPase activity at 6.3 uM
T1 sequence (whole entry): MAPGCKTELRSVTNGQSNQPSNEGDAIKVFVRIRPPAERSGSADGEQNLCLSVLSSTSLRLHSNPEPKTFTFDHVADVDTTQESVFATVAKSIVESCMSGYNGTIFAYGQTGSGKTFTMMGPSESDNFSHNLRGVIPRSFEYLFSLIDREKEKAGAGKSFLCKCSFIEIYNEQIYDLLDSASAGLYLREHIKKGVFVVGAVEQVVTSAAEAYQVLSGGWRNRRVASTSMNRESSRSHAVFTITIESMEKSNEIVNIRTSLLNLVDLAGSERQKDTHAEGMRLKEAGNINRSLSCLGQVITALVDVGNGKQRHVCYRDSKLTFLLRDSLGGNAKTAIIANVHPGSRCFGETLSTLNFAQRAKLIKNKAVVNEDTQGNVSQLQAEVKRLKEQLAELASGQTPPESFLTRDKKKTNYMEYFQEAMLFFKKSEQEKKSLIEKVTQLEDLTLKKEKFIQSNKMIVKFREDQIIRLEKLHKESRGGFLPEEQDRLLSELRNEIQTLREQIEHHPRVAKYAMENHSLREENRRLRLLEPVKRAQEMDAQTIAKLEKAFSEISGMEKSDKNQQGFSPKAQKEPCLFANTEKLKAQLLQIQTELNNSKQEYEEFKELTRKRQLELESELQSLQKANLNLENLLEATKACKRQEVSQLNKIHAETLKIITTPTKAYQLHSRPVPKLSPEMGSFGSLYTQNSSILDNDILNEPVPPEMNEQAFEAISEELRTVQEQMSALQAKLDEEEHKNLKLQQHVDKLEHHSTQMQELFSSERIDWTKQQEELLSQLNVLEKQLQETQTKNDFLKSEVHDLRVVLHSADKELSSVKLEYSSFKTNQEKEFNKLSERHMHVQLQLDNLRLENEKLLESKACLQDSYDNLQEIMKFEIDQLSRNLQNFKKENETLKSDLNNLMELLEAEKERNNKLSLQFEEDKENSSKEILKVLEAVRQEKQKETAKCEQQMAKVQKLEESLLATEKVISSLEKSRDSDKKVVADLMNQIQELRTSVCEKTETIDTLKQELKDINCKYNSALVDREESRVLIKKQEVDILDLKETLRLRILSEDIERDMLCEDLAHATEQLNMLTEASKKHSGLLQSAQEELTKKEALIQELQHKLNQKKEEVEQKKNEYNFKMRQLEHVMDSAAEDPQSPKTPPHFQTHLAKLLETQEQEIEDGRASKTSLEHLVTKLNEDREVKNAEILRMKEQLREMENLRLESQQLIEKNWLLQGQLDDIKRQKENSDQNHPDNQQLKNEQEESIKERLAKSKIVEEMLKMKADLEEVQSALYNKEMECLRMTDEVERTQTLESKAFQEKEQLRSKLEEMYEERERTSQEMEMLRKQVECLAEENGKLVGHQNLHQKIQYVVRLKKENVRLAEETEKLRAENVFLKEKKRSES

Mus musculus = assay: Toxicity in athymic nude BALB/cAJcL mouse xenografted with HCT116 cells assessed as mortality at 75 mg/kg, iv administered on days 1,3,5,8,10 and 12; assay type: organism-based, HCT-116; details: in vivo
HeLa [5] = assay: Cell cycle arrest at mitotic phase in human HeLa cells assessed as formation of monopolar spindles at 40 nM after 6 hrs by DAPI staining-based microscopic analysis; assay type: functional
[6] = molecular target: T2, Kinesin-like protein KIF11 (Homo sapiens) (UniProt P52732)
T2 sequence (whole entry): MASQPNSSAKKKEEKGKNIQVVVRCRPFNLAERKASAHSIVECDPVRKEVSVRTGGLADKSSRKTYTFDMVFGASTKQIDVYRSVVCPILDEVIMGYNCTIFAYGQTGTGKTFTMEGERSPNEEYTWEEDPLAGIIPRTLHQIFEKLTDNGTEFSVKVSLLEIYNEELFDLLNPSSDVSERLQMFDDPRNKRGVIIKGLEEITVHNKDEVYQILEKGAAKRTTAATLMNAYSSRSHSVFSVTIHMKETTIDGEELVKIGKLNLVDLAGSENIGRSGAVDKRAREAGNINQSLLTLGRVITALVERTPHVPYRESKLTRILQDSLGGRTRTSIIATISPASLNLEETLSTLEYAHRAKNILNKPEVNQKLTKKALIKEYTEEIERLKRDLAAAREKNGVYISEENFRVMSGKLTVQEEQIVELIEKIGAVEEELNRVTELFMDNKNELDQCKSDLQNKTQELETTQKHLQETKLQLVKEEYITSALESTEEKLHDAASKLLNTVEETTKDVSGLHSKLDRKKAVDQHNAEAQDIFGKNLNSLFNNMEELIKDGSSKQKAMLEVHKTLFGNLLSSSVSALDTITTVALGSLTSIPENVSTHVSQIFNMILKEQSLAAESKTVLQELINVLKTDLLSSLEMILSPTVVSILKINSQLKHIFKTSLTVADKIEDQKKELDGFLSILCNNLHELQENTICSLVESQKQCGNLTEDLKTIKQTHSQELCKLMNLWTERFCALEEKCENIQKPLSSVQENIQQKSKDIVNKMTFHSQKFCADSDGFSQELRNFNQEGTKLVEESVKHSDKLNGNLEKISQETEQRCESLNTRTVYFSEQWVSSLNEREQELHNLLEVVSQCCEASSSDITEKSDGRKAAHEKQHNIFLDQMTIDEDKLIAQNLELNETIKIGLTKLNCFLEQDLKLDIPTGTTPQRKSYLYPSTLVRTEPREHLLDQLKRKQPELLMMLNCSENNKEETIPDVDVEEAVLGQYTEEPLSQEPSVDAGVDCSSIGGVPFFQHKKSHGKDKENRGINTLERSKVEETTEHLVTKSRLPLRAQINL
Description: Binding affinity to KSP motor domain (unknown origin) assessed as change in melting temperature at 100 uM by differential scanning fluorimetry in presence of 1 mM ATP

Compound: N[C@@H](CSC1(c2ccc(C(F)(F)F)cc2)c2ccccc2CCc2ccccc21)C(=O)O
- T/C (HCT-116 [1]): 9%
- TGI (HCT-116 [2]): Dose-dependent effect
- MI50 (HeLa [3]): 14 nM
- inhibition [4]: inactive
- Activity (Mus musculus): Non-toxic
- Activity (HeLa [5]): Active

Compound: COc1ccc(C2(SC[C@H](N)C(=O)O)c3ccccc3CCc3ccccc32)cc1
- ΔTm [6]: 12 °C
- inhibition [4]: inactive
